From US20260018245A1, “SYSTEMS AND METHODS FOR IDENTIFYING AND TARGETING COLLATERAL LETHAL GENES” (The Regents of the University of Michigan, priority 2022, published 2026)

Key:
Assay type in all cases: cell-based
[1] = system: SKOV3 cells; assay: Two-drug synergy of rotenone and MTHFD2 inhibitor on viability (SynergyFinder); conditions: MTHFD2 inhibitor combined with complex I inhibitor rotenone
Excerpt: (§1) FIG. 11 Investigating alternative metabolic pathways to rescue UQCR11-null cells from collateral lethal targeting of MTHFD2. (a) Correlation between NDUFS7 mRNA expression and copy-number alterations of the 19p13.3 locus, represented by UQCR11 copy-number in TCGA OVCA dataset (n=303). Correlations estimated using Spearman's rank correlation test. (b) Gene expression of NDUFS7 measured via qRT-PCR in UQCR11-null lines (OVCAR8, CAOV3, HeyA8) relative to NDUFS7 expression in UQCR11-intact line (SKOV3). Data representative of two independent experiments presented as mean±s.d. (n=5), analyzed using ordinary one-way ANOVA with Dunnett's correction for multiple comparisons. (c) Doseresponse curve for single-agent inhibition in SKOV3 cells by either Complex I inhibitor, rotenone, or MTHFD2 inhibitor. […] Data are representative of two independent experiments and presented as mean±s.e.m (n=3) and analyzed using two-tailed Welch's t-test. […] Viability decrease was measured 72 h after inhibitor treatment relative to vehicle control. […] (n=6) and analyzed using ordinary 2-way ANOVA with Sidak's correction for multiple comparisons. […] (n=4) and analyzed using two-tailed Welch's t-test. […] Viability decrease was measured 72 h after inhibitor treatment relative to vehicle control. […] (n=5) and analyzed using two-tailed Welch's t-test.

[2] = system: UQCR11-null HeyA8 cells; assay: Resistance to MTHFD2 inhibition upon AOX expression or UQCR11 overexpression; conditions: 72 h
Excerpt: as §1

[3] = system: parental ovarian cancer lines and isogenic SKOV3 lines; assay: Viability with MTHFD2 inhibitor and uridine supplementation; conditions: UQCR11-null parental and SKOV3 shUQCR11 cells compared with UQCR11-intact cells
Experimental: (§2) FIG. 15 Investigating metabolic consequence of Complex III impairment and activity of paralogous pathways other than oxidative MTHFD2. (a) Effect of MTHFD2 inhibitor ([…]) and uridine (50 μM) supplementation on viability of parental ovarian cancer lines that are UQCR11—intact (SKOV3) or UQCR11-null (HeyA8, OVCAR8, CAOV3). Data are representative of two independent experiments and presented as mean±s.d. (n=6). Data analyzed with one-way ANOVA with Tukey's correction for multiple comparisons. (b) Effect of MTHFD2 inhibitor and uridine supplementation on viability of isogenic SKOV3 lines expressing shScramble or shUQCR11. […] Data analyzed with one-way ANOVA with Tukey's correction for multiple comparisons. […] (n=6) and analyzed using two-tailed Student's t-test. (d) mRNA expression of NNT, IDH2, IDH3A measured via qRT-PCR after knocking down with shNNT, shIDH2, and shIDH3A, relative to scramble shRNA (shScr), verifying knockdown efficiency in SKOV3 and OVCAR8 cell-lines. […] Data analyzed using unpaired two-tailed Student's t-test. […] Data are analyzed using ordinary one-way ANOVA with multiple comparisons. […] Loss of viability calculated by comparing respective viability in vehicle control-treated cells to MTHFD2 inhibitor-treated cells. […] (n=6) and analyzed using ordinary one-way ANOVA with Dunnett's correction for multiple comparisons. Error bars are calculated using propagation of error principles.

[4] = system: SKOV3 and OVCAR8 cells; assay: MTHFD2 inhibitor in cells with NNT, IDH2 or IDH3A knocked down; conditions: IDH2 or IDH3A knockdown, UQCR11-intact or -null cells, 10 μM, 72 h
Experimental: as §2

With `Cc1c(N2CCN(C)[C@@H](C)C2)ccc2c3c(c(=O)oc12)CN(C(=O)c1ccc(NS(C)(=O)=O)c(OC(F)(F)F)c1)CC3` [DS18561882] as the compound, how does the “effect of co-inhibition on viability” value [1] read?
Its value is “synergistic effect”.

And the “rescue from MTHFD2 inhibitor-mediated cell death” value ([2]; HeyA8 ectopically expressing alternative oxidase AOX)?
The value was “partially rescued”.

And the “rescue from MTHFD2 inhibitor-mediated cell death” value ([2]; HeyA8 overexpressing UQCR11)?
Its value is “partially rescued”.

What about the proliferation [3] of the same compound?
Its proliferation is “suppressed proliferation”.

What about the “effect of MTHFD2 inhibition on viability” value [4] of the same compound?
Its value is “not influenced”.
